Measurements: patent publication US20180118747A1, “METHOD OF ISOLATING THEACRINE AND COMPOSITION COMPRISING THEACRINE” (ThermoLife International, LLC, priority 2017, published 2018)

Assay: Effects of ingested theacrine versus fused theacrine as reported by human subjects
Assay type: in vivo
Settings: oral ingestion
Method: Typically, theacrine's effects in human subjects start after 30 minutes of ingestion and last 6-8 hours.

"crash" felt when the theacrine level falls (subject-reported): feels a “crash.”
SMILES: Cn1c(=O)c2c(n(C)c1=O)n(C)c(=O)n2C [theacrine, 1,3,7,9-tetramethyluric acid]
start of theacrine's effects after ingestion: 30 min
duration of theacrine's effects (same amount of theacrine in both forms): 6 to 8 h
